Test results from US10065990B2, “Cyclic peptide compound, and preparation method, pharmaceutical composition and use thereof” (HANGZHOU GUANYU BIO-MEDICAL CO., LTD, priority 2013, dated 2018).

Experiments:
[1] = test system: U937 (human leukemia cells); assay: MTT cancer cell growth inhibition; format: cell-based; details: Homo sapiens, U-937, 72 h, U937 cells, MTT, 72 hours incubation; read-out: GI50 U93
Text: (§1) MTT assay principle is yellow MTT can penetrate membrane into the cell, succinic dehydrogenase of the mitochondria in living cells can make exogenous MTT reduction of insoluble in water of blue-violet acicular formazan for crystallization and deposition in the cell, crystallization can be dissolved dimethyl sulfoxide (DMSO) solution, detected its absorbance at 490 nm/570 nm wavelength by enzyme-linked immunosorbent assay, which can reflect the number of cells.
(§2) Using DMEM+10% FBS culture medium or using 1640+10% FBS culture, respectively.
(§3) a) Cells were seeded in 96-well plates with the inoculation of 1500/well, 190 μl/hole, 37° C., 5% of CO2 incubator overnight;
(§4) b) The next day each well was added 10 μl of different drugs. The final concentration of drug was 10^−5˜10^−10M, three parallel holes; 37° C., 5% CO2 culture incubator for 72 hours incubation;
(§5) c) Per well was added 20 μl 5 mg/ml of MTT, 37° C., 5% CO2 culture incubator for 4 hours incubation;
(§6) d) The supernatant was discarded. Each well was added 100 μl of DMSO and oscillation;
(§7) e) 570 nm readings. Calculate cell viability. GI50 calculation based on the results.

[2] = test system: SGC-7901 (human gastric cancer cells); assay: MTT cancer cell growth inhibition; format: cell-based; details: Homo sapiens, SGC-7901, 72 h, MTT, 72 hours incubation, SGC-7901 cells; read-out: GI50 SGC-7901
Text: as §1, §2, §3, §4, §5, §6, §7

[3] = test system: HT1080 (human fibrosarcoma cells); assay: MTT cancer cell growth inhibition; format: cell-based; details: Homo sapiens, HT-1080, 72 h, HT1080 cells, MTT, 72 hours incubation; read-out: GI50 HT1
Text: as §1, §2, §3, §4, §5, §6, §7

[4] = test system: BGC-823 (human gastric cancer cells); assay: MTT cancer cell growth inhibition; format: cell-based; details: Homo sapiens, BGC-823, 72 h, BGC-823 cells, MTT, 72 hours incubation; read-out: GI50 BG
Text: as §1, §2, §3, §4, §5, §6, §7

[5] = test system: H1975 (non-small cell lung adenocarcinoma); assay: MTT cancer cell growth inhibition; format: cell-based; details: Homo sapiens, NCI-H1975, 72 h, MTT, 72 hours incubation, H1975 cells; read-out: GI50 H1975
Text: as §1, §2, §3, §4, §5, §6, §7

[6] = test system: Bel-7402 (human hepatoma cells); assay: MTT cancer cell growth inhibition; format: cell-based; details: Homo sapiens, Bel-7402, 72 h, MTT, 72 hours incubation, Bel-7402 cells; read-out: GI50 Bel-7402
Text: as §1, §2, §3, §4, §5, §6, §7

[7] = test system: MOLT-4 (human acute lymphoblastic leukemia cells); assay: MTT cancer cell growth inhibition; format: cell-based; details: Homo sapiens, MOLT-4, 72 h, MOLT-4 cells, MTT, 72 hours incubation; read-out: GI50 Mol
Text: as §1, §2, §3, §4, §5, §6, §7

[8] = test system: Huh-7 (human hepatoma cells); assay: MTT cancer cell growth inhibition; format: cell-based; details: Homo sapiens, Huh-7, 72 h, MTT, 72 hours incubation, Huh-7 cells; read-out: GI50 Huh-7
Text: as §1, §2, §3, §4, §5, §6, §7

[9] = test system: KBM5-T315I (human chronic myelogenous leukemia); assay: MTT cancer cell growth inhibition; format: cell-based; details: Homo sapiens, 72 h, MTT, 72 hours incubation, KBM5-T315I cells; read-out: GI50 KBM5-T315I
Text: as §1, §2, §3, §4, §5, §6, §7

[10] = test system: Hela (human cervical cancer cells); assay: MTT cancer cell growth inhibition; format: cell-based; details: Homo sapiens, HeLa, 72 h, Hela cells, MTT, 72 hours incubation; read-out: GI50 Hela
Text: as §1, §2, §3, §4, §5, §6, §7

[11] = test system: K562 (human leukemia cells); assay: MTT cancer cell growth inhibition; format: cell-based; details: Homo sapiens, K562, 72 h, MTT, 72 hours incubation, K562 cells; read-out: GI50 K562
Text: as §1, §2, §3, §4, §5, §6, §7

[12] = test system: PANC-1 (Pac-1, human pancreatic cancer cells); assay: MTT cancer cell growth inhibition; format: cell-based; details: Homo sapiens, PANC-1, 72 h, PANC-1 cells, MTT, 72 hours incubation; read-out: GI50 PAN
Text: as §1, §2, §3, §4, §5, §6, §7

[13] = test system: KBM-5 (human chronic myelogenous leukemia); assay: MTT cancer cell growth inhibition; format: cell-based; details: Homo sapiens, KBM5, 72 h, MTT, 72 hours incubation, KBM-5 cells; read-out: GI50 KBM-5
Text: as §1, §2, §3, §4, §5, §6, §7

[14] = test system: A549 (human lung cancer cells); assay: MTT cancer cell growth inhibition; format: cell-based; details: Homo sapiens, A549, 72 h, A549 cells, MTT, 72 hours incubation; read-out: GI50 A54
Text: as §1, §2, §3, §4, §5, §6, §7

[15] = test system: lncap (prostate cancer cells); assay: MTT cancer cell growth inhibition; format: cell-based; details: Homo sapiens, LNCaP, 72 h, lncap cells, MTT, 72 hours incubation; read-out: GI50 lnca
Text: as §1, §2, §3, §4, §5, §6, §7

[16] = test system: DU145 (human prostate cancer cells); assay: MTT cancer cell growth inhibition; format: cell-based; details: Homo sapiens, DU-145, 72 h, DU145 cells, MTT, 72 hours incubation; read-out: GI50 Du1
Text: as §1, §2, §3, §4, §5, §6, §7

[17] = test system: HCC827 (human non-small cell lung cancer cells); assay: MTT cancer cell growth inhibition; format: cell-based; details: Homo sapiens, HCC827, 72 h, MTT, 72 hours incubation, HCC827 cells; read-out: GI50 HCC827
Text: as §1, §2, §3, §4, §5, §6, §7

[18] = test system: MCF-7 (human breast cancer cells); assay: MTT cancer cell growth inhibition; format: cell-based; details: Homo sapiens, MCF7, 72 h, MCF-7 cells, 72 hours incubation, read-out: GI50 MCF
Text: as §1, §2, §3, §4, §5, §6, §7

[19] = test system: MDA-MB-231 (breast cancer cells); assay: MTT cancer cell growth inhibition; format: cell-based; details: Homo sapiens, MDA-MB-231, 72 h, read-out: GI50 MDA-MB-231, MTT, 72 hours incubation, MDA-MB-231 cells
Text: as §1, §2, §3, §4, §5, §6, §7

[20] = test system: N-87 (human gastric cancer cells); assay: MTT cancer cell growth inhibition; format: cell-based; details: Homo sapiens, 72 h, MTT, 72 hours incubation, N-87 cells; read-out: GI50 N-87
Text: as §1, §2, §3, §4, §5, §6, §7

HDAC7 = target: T1, HDAC7 (Homo sapiens, UniProt Q8WUI4); assay: HDAC biochemical activity measurement (fluorescent substrate deacetylation);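 also: fluorogenic deacetylation assay using acetyl-lysine substrate at 20 µM, enzyme and compound incubated 30 min at 37 °C, then developer added, fluorescence read at 360/460 nm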; details: HDAC7; 37° C. 30 minutes
T1 sequence (Q8WUI4 1-952): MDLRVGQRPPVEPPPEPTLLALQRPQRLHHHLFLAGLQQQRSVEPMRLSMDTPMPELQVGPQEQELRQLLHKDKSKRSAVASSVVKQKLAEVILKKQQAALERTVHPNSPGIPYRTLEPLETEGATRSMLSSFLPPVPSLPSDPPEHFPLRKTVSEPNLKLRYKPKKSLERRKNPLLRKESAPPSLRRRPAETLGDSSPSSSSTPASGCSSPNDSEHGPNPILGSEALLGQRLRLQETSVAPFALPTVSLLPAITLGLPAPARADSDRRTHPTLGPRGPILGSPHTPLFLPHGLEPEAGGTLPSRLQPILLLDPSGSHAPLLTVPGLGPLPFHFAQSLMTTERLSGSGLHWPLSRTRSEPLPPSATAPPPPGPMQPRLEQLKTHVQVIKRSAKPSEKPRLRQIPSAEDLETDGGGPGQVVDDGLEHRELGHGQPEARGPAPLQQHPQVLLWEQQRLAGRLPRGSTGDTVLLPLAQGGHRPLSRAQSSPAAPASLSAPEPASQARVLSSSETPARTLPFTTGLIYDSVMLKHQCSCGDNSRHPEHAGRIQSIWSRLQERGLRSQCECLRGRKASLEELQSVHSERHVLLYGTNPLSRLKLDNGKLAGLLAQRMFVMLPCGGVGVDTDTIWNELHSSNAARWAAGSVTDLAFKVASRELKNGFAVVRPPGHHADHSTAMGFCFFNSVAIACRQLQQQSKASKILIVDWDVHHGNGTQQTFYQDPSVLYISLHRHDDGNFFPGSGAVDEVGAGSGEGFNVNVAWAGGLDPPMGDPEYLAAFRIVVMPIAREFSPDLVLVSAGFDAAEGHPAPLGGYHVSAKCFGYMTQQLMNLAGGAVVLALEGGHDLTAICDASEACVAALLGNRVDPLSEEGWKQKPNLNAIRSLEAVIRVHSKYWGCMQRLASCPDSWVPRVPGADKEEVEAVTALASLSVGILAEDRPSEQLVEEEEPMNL

Compound	GI50 [1]	GI50 [2]	GI50 [3]	GI50 [4]	GI50 [5]	GI50 [6]	GI50 [7]	GI50 [8]	GI50 [9]	GI50 [10]	GI50 [11]	GI50 [12]	GI50 [13]	GI50 [14]	GI50 [15]	GI50 [16]	GI50 [17]	GI50 [18]	GI50 [19]	GI50 [20]	other results
C/C=C1\NC(=O)c2nc(ccc2SC)CNC(=O)C[C@@H](/C=C/CCSC(=O)CC)OC(=O)[C@H](C(C)C)NC1=O [Compound 162]	50 nM	78 nM	70 nM	50 nM	49 nM	35 nM	70 nM	81 nM	16 nM	80 nM	73 nM	70 nM	42 nM	90 nM	50 nM	10 nM	51 nM	40 nM	79 nM	18 nM	IC50 HDAC7 (HDAC7): no activity
C/C=C1\NC(=O)c2ccc(SCCC)c(n2)CNC(=O)C[C@@H](/C=C/CCSC(=O)CCCCCCC)OC(=O)[C@H](CC)NC1=O [Compound 176]	10 nM	31 nM	30 nM	20 nM	31 nM	31 nM	50 nM	31 nM	38 nM	50 nM	21 nM	60 nM	34 nM	80 nM	30 nM	50 nM	38 nM	10 nM	32 nM	28 nM	IC50 HDAC7 (HDAC7): no activity
CSc1ccc2nc1C(=O)NC(=C(C)C)C(=O)N[C@@H](C(C)C)C(=O)O[C@H](/C=C/CCSC(C)=O)CC(=O)NC2 [Compound 207]	40 nM	57 nM	30 nM	30 nM	46 nM	27 nM	10 nM	33 nM	21 nM	20 nM	48 nM	50 nM	38 nM	30 nM	50 nM	30 nM	55 nM	40 nM	79 nM	19 nM	IC50 HDAC7 (HDAC7): no activity
